Reference: article PMC11292009, “Mapping protein binding sites by photoreactive fragment pharmacophores” (Communications Chemistry, 2024)

Legend:
Type in all cases: binding
STAT5B-NTD [1] = tested on: T1, STAT5B-NTD; assay: Intact MS photoaffinity labeling screen, STAT5B-NTD (365 nm, UHPLC-MS); details: for MS labeling percentage, STAT5B: STAT5B-NTD, 365 nm 10 min, no photocatalyst; for STAT5B-NTD: experimental hit status flag (0/1);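 as to MS labeling percentage, STAT5B: 0.17 µL of 100 mM DMSO fragment stock added to the protein sample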
T1 construct: His-SUMO (N, cleaved yes); made in house; host or cells: E. coli BL21 RILP
Experimental: STAT5B protein in 7 µM concentration in pH 7.4 PBS buffer was pre-incubated with 0.17 µL PhP (in 100 mM DMSO solution) for 1 h at room temperature in dark. Irradiation was carried out at 4 °C for 10 min using 365 nm UV lamp.
(§1) During the analysis, the column temperature was maintained at a constant 60 °C, and a sample volume of 3 µL was injected for each analysis. Data acquisition was conducted in positive ion mode within the m/z 100–2000 (mass-to-charge ratio) range. For the full protocol and spectra of the hits, see Supplementary Note 2.

lysozyme (Lyo) = assay: Intact protein MS photoaffinity labeling screen, lysozyme; details: intact protein MS after 10 min irradiation
Experimental: (§2) Using a plate-based format with one fragment per well, each fragment was incubated with the target proteins for 15 min to allow for the formation of non-covalent interactions. […] Finally, the results were directly analyzed from the plate using intact protein mass spectrometry by observing the mass additions that correspond to successful labeling (Fig. 2c, for labeling % values see Supplementary data). The library was first characterized against three benchmark proteins like carbonic anhydrase (CA), lysozyme (Lyo), and myoglobin (Myo).

BRD4-BD1 = tested on: T2, BRD4-BD1; assay: Intact MS photoaffinity labeling screen, BRD4-BD1 (302 nm, LCMS-TOF); details: for MS labeling percentage, BRD4: BRD4-BD1, 302 nm 10 min; for BRD4-BD1: experimental hit status flag (0/1)
T2 construct: screened the PhP library against the first bromodomain of BRD4 (BRD4-BD1); purchased GSK/GenScript
Experimental: as §2
(§3) The PhP library was screened against BRD4-BD1 and KRas^G12D as follows. […] The probe plate was placed on ice. 15 μL of protein stock solution (1 μM BRD4-BD1 (GSK/GenScript) or KRas^G12D (GSK/GenScript) in PBS buffer) was dispensed into wells containing fragments. The plate was left on ice for 15 min for incubation, then irradiated at 302 nm for 10 min, and centrifuged (1000 rpm, 1 min) to remove any bubbles. […] The deconvoluted spectra were analyzed using R Studio software.

myoglobin (Myo) = assay: Intact protein MS photoaffinity labeling screen, myoglobin; details: intact protein MS after 10 min irradiation
Experimental: as §2

[2] = tested on: carbonic anhydrase II (CA); assay: Intact protein MS photoaffinity labeling screen, carbonic anhydrase; details: intact protein MS after 10 min irradiation
Experimental: as §2

KRas^G12D = tested on: T3, KRas^G12D; assay: Intact MS photoaffinity labeling screen, KRas G12D (302 nm, LCMS-TOF); details: for MS labeling percentage, KRas: KRas G12D, 302 nm 10 min; for KRAS-G12D: experimental hit status flag (0/1)
T3 construct: purchased GSK/GenScript
Experimental: as §2, §3

STAT5B-NTD [3] = tested on: T1, STAT5B-NTD; assay: Intact MS labeling screen, STAT5B-NTD conjugated with photocatalyst Ir-G2-PEG3-COOH (450 nm); details: 450 nm 10 min;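 also: 0.14 µL of 100 mM DMSO fragment stock added to the conjugate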
Experimental: For the photocatalysis experiments, 1.4 µL photocatalyst (in 1.4 mM DMSO solution, 10 eq) was pre-incubated with 1.5 µL coupling reagent (0.75 µL, 5.6 mM EDC (20 eq)+0.75 µL 4.2 mM NHS and 1.5 µL 2.1 mM (15 eq) BOP for 30 min in dark. 30 µL STAT5B-NTD (in 7 µM concentration) was added and incubated further at room temperature overnight or at 37 °C for 1 h in dark. After addition of 0.14 µL PhP (in 100 mM DMSO) the solution was further incubated in dark for 1 h. Irradiation was carried out using 450 nm LED lamp (7.6Vx0A) for 10 min at 4 °C.
as §1

Structure (SMILES)	MS labeling percentage, STAT5B (STAT5B-NTD [1]) [%]	STAT5B-NTD (STAT5B-NTD [1])	MS labeling percentage, Lyo (lysozyme (Lyo)) [%]	MS labeling percentage, BRD4 (BRD4-BD1) [%]	BRD4-BD1 (BRD4-BD1)	MS labeling percentage, Myo (myoglobin (Myo)) [%]	MS labeling percentage, CA [2] [%]	MS labeling percentage, KRas (KRas^G12D) [%]	KRAS-G12D (KRas^G12D)	MS labeling percentage, STAT5B+photocat (STAT5B-NTD [3]) [%]
CCOC(=O)c1c(NC(=O)CCC2(C)N=N2)sc2c1CCN(Cc1ccccc1)C2 [PhP002, N1=NC1(C)CCC(=O)Nc(s2)c(C(=O)OCC)c(c23)CCN(C3)Cc4ccccc4]	0	0	0	0.1	0	0.1	0.2	0.2	0	0
Cc1[nH]c2ccc(CNC(=O)CCC3(C)N=N3)cc2c1C [PhP004, Cc([nH]1)c(C)c(c12)cc(cc2)CNC(=O)CCC3(C)N=N3]	2.9	0	0		0	0.3	0.1	0.7	0	13
CCOC(=O)[C@H](NC(=O)CCC1(C)N=N1)c1ccccc1 [PhP005, c1ccccc1[C@H](C(=O)OCC)NC(=O)CCC2(C)N=N2]	2	0	0	0.1	0	0.1	0.1	0	0	1.5
COc1ccc(-c2csc(CCNC(=O)CCC3(C)N=N3)n2)cc1 [PhP006, COc1ccc(cc1)-c2csc(n2)CCNC(=O)CCC3(C)N=N3]	0	0	0	2.3	0	0.3	0.6	1.3	0	3.3
CN1C(=O)COc2ccc(NC(=O)CCC3(C)N=N3)cc21 [PhP007, O1CC(=O)N(C)c(c12)cc(cc2)NC(=O)CCC3(C)N=N3]	1	0	1.8	0.4	0	0.1	0.2	0.2	0	12.7
CC1(CCC(=O)NCc2cncc3ccccc23)N=N1 [PhP008, N1=NC1(C)CCC(=O)NCc(cnc2)c(c23)cccc3]	2.9	0	0	0.5	0	0.6	0.9	1	0	19.6
Cc1[nH]cnc1CNC(=O)CCC1(C)N=N1 [PhP009, Cc1[nH]cnc1CNC(=O)CCC2(C)N=N2]	1	0	0	0.7	0	0.4	0.6	0.7	0	1
CC1(CCC(=O)NCc2ccc(N3CCC(CO)CC3)cc2)N=N1 [PhP010, N1=NC1(C)CCC(=O)NCc2ccc(cc2)N3CCC(CO)CC3]	1	0	0	0.3	0	0	0	0.5	0	0
CC1(CCC(=O)Nc2nc(-c3c[nH]c(C(N)=O)c3)cs2)N=N1 [PhP011, N1=NC1(C)CCC(=O)Nc2nc(cs2)-c3c[nH]c(c3)C(=O)N]	2	0	0	0.2	0	0	0	0.2	0	3.4
CC(Cc1cccc(OCc2ccccc2)c1)NC(=O)CCC1(C)N=N1 (stereo not shown) [PhP013, N1=NC1(C)CCC(=O)NC(C)Cc2cccc(c2)OCc3ccccc3]	0	0	0.3	40.6	0	0.3	0.4		0	8.8
COC(=O)C(Cc1c[nH]c2ccccc12)NC(=O)CCC1(C)N=N1 (stereo not shown) [PhP014, N1=NC1(C)CCC(=O)NC(C(=O)OC)Cc(c[nH]2)c(c23)cccc3]	2	0	0.3	0.4	0	0.1	0.3	1.3	0	7.7
CC1(CCC(=O)NC2CCCC(NC(=O)OC(C)(C)C)C2)N=N1 (stereo not shown) [PhP015, CC(C)(C)OC(=O)NC1CCCC(C1)NC(=O)CCC2(C)N=N2]	1	0	1.1	0.3	0	0.2	0.3	0.6	0	1.6
